# Source: patent publication US10471046B2, “Method for treating, preventing, or reducing the risk of skin infection” (Melinta Subsidiary Corp., priority 2014, dated 2019)
# Tests used:
# G. vaginalis [1] = experiment: Agar dilution MIC (CLSI reference method); type: cell-based; details: Gardnerella vaginalis
# F. magna [2] = experiment: Agar dilution MIC (CLSI reference method); type: cell-based; details: Finegoldia magna, ATCC15794; F. magna ATCC 15794
# P. granulosum [3] = experiment: Agar dilution MIC (CLSI reference method); type: cell-based; details: P. granulosum ATCC 25746
# [4] = Long-term rat safety study; type: in vivo; details: rat, in vivo, 100 mg/kg/day
# Description: There was 100% survival in all dose groups.
# Enterococcus faecalis = experiment: MIC against ribosome-based resistance phenotypes; type: cell-based; details: ATCC29212, Enterococcus faecalis ATCC29212-P5, Lin-R (G2576U), read-out: Minimum Inhibitory Concentration (MIC)
# Description: (§1) Furthermore, the antibiotic compounds can be assayed for anti-proliferative or anti-infective properties on a cellular level. For example, where the target organism is a microorganism, the activity of compounds of interest can be assayed by growing the microorganisms of interest in media either containing or lacking the compound. Growth inhibition can be indicative that the molecule could be acting as a protein synthesis inhibitor. […] For this purpose, a panel of bacterial strains can be assembled to include a variety of target pathogenic species, some containing resistance mechanisms that have been characterized. Use of such a panel of organisms permits the determination of structure-activity relationships not only in regards to potency and spectrum, but also with a view to obviating resistance mechanisms.
# Staphylococcus aureus = experiment: MIC against ribosome-based resistance phenotypes; type: cell-based; details: Staphylococcus aureus A7820, Lin-R (G2576U) + Mac-R (ErmC), read-out: Minimum Inhibitory Concentration (MIC)
# Description: as §1
# Enterococcus faecium = experiment: MIC against ribosome-based resistance phenotypes; type: cell-based; details: Enterococcus faecium A6349; VanA + Lin-R (G2576U); read-out: Minimum Inhibitory Concentration (MIC)
# Description: as §1, with “mechanisms. The assays can be performed in microtiter trays according to conventional methodologies as published by The National Committee for Clinical Laboratory Standards (NCCLS) guidelines (NCCLS. M7-A5-Methods for Dilution Antimicrobial Susceptibility Tests for Bacteria That Grow Aerobically; Approved Standard-Fifth Edition. NCCLS Document M100-S12/M7 (ISBN 1-56238-394-9)).” for “mechanisms.”
# B. fragilis = experiment: Broth microdilution MIC; type: cell-based; details: Bacteroides fragilis, ATCC25285; B. fragilis ATCC 25285
# P. acnes = experiment: Agar dilution MIC (CLSI reference method); type: cell-based; details: Cutibacterium acnes
# G. vaginalis [5] = experiment: Broth microdilution MIC; type: cell-based; details: Gardnerella vaginalis
# S. aureus = experiment: Agar dilution MIC (CLSI reference method); type: cell-based; details: Staphylococcus aureus, ATCC29213; S. aureus ATCC 29213
# Procedure: Susceptibility testing was performed by the agar dilution reference method (radezolid, linezolid, and clindamycin) and broth microdilution method (all agents) as described by the Clinical and Laboratory Standards Institute (CLSI).
# For the agar dilution method, Brucella agar (BBL, 211086) was prepared according to the manufacturer's instructions and cooled to 48-50° C. in a water bath. Once the agar was cooled, it was supplemented with 10 mL of hemin+vitamin K1 Solution (Remel, R450951), 1 mL of 1 mg/mL vitamin K1 working solution (Sigma, V3501), and 50 mL laked sheep blood (Remel, R54004). The media was dispensed into 50 mL centrifuge tubes and held at 48-50° C. […] The diluted antimicrobial agents were added to the dispensed media, gently mixed, and poured into sterile petri dishes. Once hardened, the plates were held in anaerobic jars at room temperature and used the following day. […]
# On the day of testing, a 0.5 McFarland equivalent of each isolate was prepared in Brucella broth with hemin+vitamin K1. […] BRU plates and those containing compound were incubated at 35° C. in an anaerobic environment for 24 hours, read, and re-incubated for an additional 24 hours followed by a final reading. […] Following incubation, MICs were determined as the lowest concentration showing a marked reduction in growth or no growth compared to the growth control plate.
# F. magna [6] = experiment: Broth microdilution MIC; type: cell-based; details: Finegoldia magna, ATCC15794; F. magna ATCC 15794
# P. granulosum [7] = experiment: Broth microdilution MIC; type: cell-based; details: P. granulosum ATCC 25746
# [8] = ATCC14018, G. vaginalis ATCC 14018
# [9] = ATCC49145, G. vaginalis ATCC 49145
compound,measurement,setting,value
"CC(=O)NC[C@H]1CN(c2ccc(N3CCOCC3)c(F)c2)C(=O)O1 [Linezolid, linezolid]",MIC,G. vaginalis [1]; [8],0.5 µg/mL
same,MIC,G. vaginalis [1]; [9],0.5 µg/mL
same,MIC,F. magna [2],2 µg/mL
same,MIC,P. granulosum [3],2 µg/mL
same,cellularity of sternal and femoral bone marrow,[4],decreased cellularity of sternal and femoral bone marrow
same,"red cell mass, absolute reticulocyte and neutrophil counts",[4],"decreased red cell mass, absolute reticulocyte and neutrophil counts"
same,MIC,Enterococcus faecalis,32 µg/mL
same,MIC,Staphylococcus aureus,64 µg/mL
same,MIC,Enterococcus faecium,16 µg/mL
same,MIC,B. fragilis,2 µg/mL
same,MIC,"P. acnes; ATCC11827, P. acnes ATCC 11827",0.5 µg/mL
same,MIC,"P. acnes; ATCC11828, P. acnes ATCC 11828",0.5 µg/mL
same,MIC,"P. acnes; ATCC29399, P. acnes ATCC 29399",0.5 µg/mL
same,MIC,G. vaginalis [5]; [8],0.5 µg/mL
same,MIC,G. vaginalis [5]; [9],0.5 µg/mL
same,MIC,S. aureus,2 µg/mL
same,MIC,F. magna [6],1 µg/mL
same,MIC,P. granulosum [7],1 µg/mL
